Assays:
[1] = Transport activity of VP22 sub-sequences; type: cell-based; settings: sub-sequences of full HSV1 VP22 sequence (1-301)
Cos-1 cells = experiment: Delivery by intercellular trafficking, immunofluorescence of transfected Cos-1 cell monolayers; type: cell-based; settings: transfected Cos-1 cells, 48 h, methanol-fixed, anti-VP22/-p53/-epitope immunofluorescence
Protocol: Cos-1 cells were grown in Dulbecco's modified MEM supplemented with 10% new born calf serum at 37° C. with 5% CO2.
Transfections were performed using the BES/CaCl2 method (Elliott and O'Hare, 1997) with 200 ng test plasmid with 1800 ng pUB19. Transfections were allowed to proceed for 48 h at which point the monolayers were harvested for immunofluorescence or western blot analysis.
Cell monolayers on coverslips were fixed with 100% methanol for 15 mins at room temperature and labelled as described in Elliott and O'Hare (1997). All antibodies were diluted in PBS+10% serum. VP22 was detected using a rabbit polyclonal antibody AGV30 (1:500), p53 was detected using a mouse monoclonal antibody DO-1 (Santa-Cruz Ltd), the CMV epitope was detected using a mouse monoclonal antibody CMV. LNA (Capricorn Ltd). Images were obtained using a Bio-Rad MRC600 confocal microscope.
The VP22-p53 fusion protein construct was generated by cloning a full length p53 PCR fragment C-terminal to VP22 into a unique Bam site, keeping both VP22 and the CMV epitope in frame.
We constructed an epitope-tagged full length in-frame VP22-p53 fusion protein construct (FIG. 2). This vector generates a fusion protein of approx 90 kDa when expressed in Cos-1 cells, with very little protein degradation as judged by western blot analysis (FIG. 3). […]

Row | Substance | transport activity [1] | delivery by intercellular trafficking (spread into nuclei of neighbouring non-expressing cells) (Cos-1 cells)
1 | aa 175-301: polypeptide consisting of aa 175-301 of the VP22 sequence | markedly less transport activity | 
2 | aa 159-301: polypeptide corresponding to aminoacids 159-301 of the full HSV1 VP22 sequence (1-301) | transport activity is present | 
3 | VP22: HSV-1 virion protein VP22, 38 kDa, with intercellular trafficking mechanism |  | clear spread to the nuclei of adjacent cells
4 | aa 60-301: polypeptide corresponding to aminoacids 60-301 of the full HSV1 VP22 sequence (1-301) | transport activity is present | 
5 | deletion of the 34-aminoacid C-terminal sequence from VP22 of HSV1: VP22 of HSV1 lacking its 34-aminoacid C-terminal sequence | abolishes transport-activity | 

Source: US20040197346A1, “Materials and methods for intracellular transport and their uses” (Marie Curie Cancer Care, priority 1997, published 2004)
